{"source": "paper PMC11897524", "about": "(Frontiers in Pharmacology, 2025)", "experiment_in_all_cases": "SelectScreen Z′-LYTE kinase assay", "type_in_all_cases": "biochemical", "key": {"ABL2": {"biological_target": "ABL2 (Homo sapiens, UniProt P42684)", "procedure": "(§1) The kinase selectivity profile of BST-4 was performed by the SelectScreen kinase profiling service (Thermo Fisher Scientific). Kinase selectivity assay was performed using Z′-LYTE ™ screening protocol kit. Briefly, the test compounds were screened in 1% DMSO (final). For 10-point titrations, perform a 3-fold dilution starting at a starting concentration of 50 µM. Then 2.5 µL 4× test compound, 2.4 µL kinase buffer, 5 µL 2× kinase mixture and 2.5 µL 4× ATP solution was added in black 384-well plate. After shaking for 30 s, the plates were incubated for 60 min at room temperature. Add developing reagent solution and shake the plate for 30 s, then incubate for 1 h at room temperature. The Fluorescence intensity per well was read using a fluorescence plate reader. SelectScreen® Kinase Profiling Service used XLfit from IDBS. The dose response curve was curve fit to model number 205 (sigmoidal dose-response model) and inhibition rates were calculated. 50% inhibition was used as a activity threshold. IC50 values were calculated based on curve fitting."}, "EPHA1": {"biological_target": "EPHA1 (Homo sapiens, UniProt P21709)", "sequence (P21709 26-976)": "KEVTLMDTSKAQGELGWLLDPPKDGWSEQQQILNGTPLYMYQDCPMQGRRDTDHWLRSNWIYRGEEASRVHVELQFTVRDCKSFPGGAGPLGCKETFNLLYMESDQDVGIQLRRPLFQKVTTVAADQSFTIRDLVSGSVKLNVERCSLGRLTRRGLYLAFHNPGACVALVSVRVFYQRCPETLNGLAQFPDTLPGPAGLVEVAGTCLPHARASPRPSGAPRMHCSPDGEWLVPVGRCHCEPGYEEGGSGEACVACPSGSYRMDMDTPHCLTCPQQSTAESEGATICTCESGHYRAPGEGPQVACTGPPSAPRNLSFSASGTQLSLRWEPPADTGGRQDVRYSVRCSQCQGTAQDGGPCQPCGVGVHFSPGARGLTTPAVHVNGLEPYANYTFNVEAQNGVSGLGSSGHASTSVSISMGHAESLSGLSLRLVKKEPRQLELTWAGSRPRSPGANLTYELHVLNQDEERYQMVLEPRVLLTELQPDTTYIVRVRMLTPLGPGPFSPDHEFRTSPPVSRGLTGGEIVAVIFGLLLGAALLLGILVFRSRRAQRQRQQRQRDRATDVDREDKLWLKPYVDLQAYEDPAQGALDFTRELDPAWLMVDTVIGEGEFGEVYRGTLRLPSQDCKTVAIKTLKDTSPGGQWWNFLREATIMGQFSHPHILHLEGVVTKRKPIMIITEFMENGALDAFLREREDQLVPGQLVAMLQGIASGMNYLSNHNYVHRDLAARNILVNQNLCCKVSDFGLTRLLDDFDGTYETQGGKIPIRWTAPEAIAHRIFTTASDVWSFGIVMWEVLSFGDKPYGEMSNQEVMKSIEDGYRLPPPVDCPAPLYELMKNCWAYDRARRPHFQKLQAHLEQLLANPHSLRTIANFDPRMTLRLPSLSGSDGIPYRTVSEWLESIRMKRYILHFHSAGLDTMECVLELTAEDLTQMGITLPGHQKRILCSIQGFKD", "procedure": "as §1"}, "EPHA2": {"biological_target": "EPHA2 (Homo sapiens, UniProt P29317)", "procedure": "as §1"}, "EPHA3": {"biological_target": "EPHA3 (Homo sapiens, UniProt P29320)", "procedure": "as §1"}, "EPHA5": {"biological_target": "EPHA5 (Homo sapiens, UniProt P54756)", "sequence (P54756 25-1037)": "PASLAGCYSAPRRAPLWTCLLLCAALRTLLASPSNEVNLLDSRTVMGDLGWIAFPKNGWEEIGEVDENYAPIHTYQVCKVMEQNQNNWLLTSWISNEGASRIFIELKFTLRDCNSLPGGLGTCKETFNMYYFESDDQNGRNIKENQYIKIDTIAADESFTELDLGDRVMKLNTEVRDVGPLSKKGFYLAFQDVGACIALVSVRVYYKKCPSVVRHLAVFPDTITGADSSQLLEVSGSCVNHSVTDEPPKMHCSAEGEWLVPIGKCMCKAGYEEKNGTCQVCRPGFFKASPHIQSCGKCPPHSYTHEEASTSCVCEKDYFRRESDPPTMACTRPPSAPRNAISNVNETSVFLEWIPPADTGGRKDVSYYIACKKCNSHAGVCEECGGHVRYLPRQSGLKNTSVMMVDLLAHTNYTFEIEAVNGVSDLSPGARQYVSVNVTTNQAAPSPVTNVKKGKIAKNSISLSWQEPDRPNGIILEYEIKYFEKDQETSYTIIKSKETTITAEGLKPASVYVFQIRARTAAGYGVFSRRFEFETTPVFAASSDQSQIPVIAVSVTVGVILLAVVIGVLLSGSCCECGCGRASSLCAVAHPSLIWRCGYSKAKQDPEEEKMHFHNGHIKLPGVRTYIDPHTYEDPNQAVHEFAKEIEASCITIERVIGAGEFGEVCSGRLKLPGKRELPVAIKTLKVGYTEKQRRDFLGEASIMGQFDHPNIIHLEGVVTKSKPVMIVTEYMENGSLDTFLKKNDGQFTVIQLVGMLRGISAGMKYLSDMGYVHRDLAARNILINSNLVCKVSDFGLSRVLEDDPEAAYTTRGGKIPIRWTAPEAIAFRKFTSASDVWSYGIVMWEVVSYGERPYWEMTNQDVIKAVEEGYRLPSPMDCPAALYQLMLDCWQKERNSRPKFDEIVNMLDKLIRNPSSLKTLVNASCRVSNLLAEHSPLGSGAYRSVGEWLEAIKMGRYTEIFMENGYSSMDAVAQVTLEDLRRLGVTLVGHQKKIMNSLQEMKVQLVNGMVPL", "procedure": "as §1"}, "EPHA6": {"biological_target": "EPHA6 (Homo sapiens, UniProt Q9UF33)", "procedure": "as §1"}, "EPHB1": {"biological_target": "EPHB1 (Homo sapiens, UniProt P54762)", "procedure": "as §1"}, "EPHB2": {"biological_target": "EPHB2 (Homo sapiens, UniProt P29323)", "procedure": "as §1"}, "FES": {"biological_target": "FES (Homo sapiens, UniProt P07332)", "procedure": "as §1"}, "FGFR4": {"biological_target": "FGFR4 (Homo sapiens, UniProt P22455)", "sequence (P22455 22-802)": "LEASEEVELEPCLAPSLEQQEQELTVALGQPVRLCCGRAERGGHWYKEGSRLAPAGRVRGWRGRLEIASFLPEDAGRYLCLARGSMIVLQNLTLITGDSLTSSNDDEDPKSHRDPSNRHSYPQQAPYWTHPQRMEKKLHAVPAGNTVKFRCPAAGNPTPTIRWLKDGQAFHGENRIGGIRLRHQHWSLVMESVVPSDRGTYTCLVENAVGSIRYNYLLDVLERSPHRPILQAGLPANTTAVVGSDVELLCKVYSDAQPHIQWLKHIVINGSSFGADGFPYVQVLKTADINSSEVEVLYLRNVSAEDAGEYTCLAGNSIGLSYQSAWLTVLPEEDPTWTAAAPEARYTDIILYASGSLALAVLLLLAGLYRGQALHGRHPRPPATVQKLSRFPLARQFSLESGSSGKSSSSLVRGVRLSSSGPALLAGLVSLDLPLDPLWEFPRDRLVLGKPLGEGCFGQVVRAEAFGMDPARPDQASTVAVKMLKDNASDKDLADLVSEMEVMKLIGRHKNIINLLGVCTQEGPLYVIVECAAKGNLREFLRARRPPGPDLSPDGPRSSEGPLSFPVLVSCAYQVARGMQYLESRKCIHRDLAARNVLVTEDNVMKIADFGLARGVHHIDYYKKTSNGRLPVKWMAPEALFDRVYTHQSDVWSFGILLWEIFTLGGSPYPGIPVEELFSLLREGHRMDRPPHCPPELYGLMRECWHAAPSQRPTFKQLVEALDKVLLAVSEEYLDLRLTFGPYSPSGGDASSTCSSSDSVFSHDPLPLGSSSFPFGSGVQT", "procedure": "as §1"}, "FGR": {"biological_target": "FGR (Homo sapiens, UniProt P09769)", "sequence (P09769 whole entry)": "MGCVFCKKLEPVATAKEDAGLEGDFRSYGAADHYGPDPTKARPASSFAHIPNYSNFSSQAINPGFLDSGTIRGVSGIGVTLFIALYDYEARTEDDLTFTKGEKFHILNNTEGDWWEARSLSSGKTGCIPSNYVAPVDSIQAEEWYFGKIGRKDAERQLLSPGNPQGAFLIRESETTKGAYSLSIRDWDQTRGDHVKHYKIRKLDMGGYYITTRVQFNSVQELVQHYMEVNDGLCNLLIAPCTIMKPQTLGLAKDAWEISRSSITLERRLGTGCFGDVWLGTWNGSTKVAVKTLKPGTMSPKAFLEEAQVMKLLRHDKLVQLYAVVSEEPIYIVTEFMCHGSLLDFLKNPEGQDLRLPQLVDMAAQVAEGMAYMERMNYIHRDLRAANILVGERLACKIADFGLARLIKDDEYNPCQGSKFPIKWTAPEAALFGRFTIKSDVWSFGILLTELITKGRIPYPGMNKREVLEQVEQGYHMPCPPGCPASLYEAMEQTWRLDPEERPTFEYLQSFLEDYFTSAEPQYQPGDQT", "procedure": "as §1"}, "FLT4": {"biological_target": "FLT4 (Homo sapiens, UniProt P35916)", "procedure": "as §1"}, "FRK": {"biological_target": "FRK (Homo sapiens, UniProt P42685)", "procedure": "as §1"}, "IGF1R": {"biological_target": "IGF1R (Homo sapiens, UniProt P08069)", "procedure": "as §1"}, "INSR": {"biological_target": "INSR (Homo sapiens, UniProt P06213)", "procedure": "as §1"}, "ITK": {"biological_target": "ITK (Homo sapiens, UniProt Q08881)", "sequence (Q08881 whole entry)": "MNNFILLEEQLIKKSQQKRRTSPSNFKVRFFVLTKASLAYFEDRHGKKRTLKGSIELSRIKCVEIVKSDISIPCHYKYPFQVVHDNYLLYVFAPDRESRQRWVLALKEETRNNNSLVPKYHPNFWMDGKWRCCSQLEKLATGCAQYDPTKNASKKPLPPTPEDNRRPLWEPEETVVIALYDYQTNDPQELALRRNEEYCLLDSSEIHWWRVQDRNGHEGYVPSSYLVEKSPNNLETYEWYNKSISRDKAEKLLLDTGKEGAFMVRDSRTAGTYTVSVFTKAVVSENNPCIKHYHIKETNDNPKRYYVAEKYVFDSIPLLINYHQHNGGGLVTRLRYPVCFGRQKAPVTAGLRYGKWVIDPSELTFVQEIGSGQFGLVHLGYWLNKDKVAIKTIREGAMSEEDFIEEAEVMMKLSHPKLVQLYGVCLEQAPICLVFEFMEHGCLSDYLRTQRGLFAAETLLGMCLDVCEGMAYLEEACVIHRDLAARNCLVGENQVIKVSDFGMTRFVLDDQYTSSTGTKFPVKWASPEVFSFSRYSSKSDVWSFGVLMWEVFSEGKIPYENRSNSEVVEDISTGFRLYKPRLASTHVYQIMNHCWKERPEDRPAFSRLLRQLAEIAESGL", "procedure": "as §1"}, "KDR": {"biological_target": "KDR (Homo sapiens, UniProt P35968)", "procedure": "as §1"}, "LCK": {"biological_target": "LCK (Homo sapiens, UniProt P06239)", "procedure": "as §1"}, "MET": {"biological_target": "MET (Homo sapiens, UniProt P08581)", "procedure": "as §1"}, "MUSK": {"biological_target": "MUSK (Homo sapiens, UniProt O15146)", "sequence (O15146 24-869)": "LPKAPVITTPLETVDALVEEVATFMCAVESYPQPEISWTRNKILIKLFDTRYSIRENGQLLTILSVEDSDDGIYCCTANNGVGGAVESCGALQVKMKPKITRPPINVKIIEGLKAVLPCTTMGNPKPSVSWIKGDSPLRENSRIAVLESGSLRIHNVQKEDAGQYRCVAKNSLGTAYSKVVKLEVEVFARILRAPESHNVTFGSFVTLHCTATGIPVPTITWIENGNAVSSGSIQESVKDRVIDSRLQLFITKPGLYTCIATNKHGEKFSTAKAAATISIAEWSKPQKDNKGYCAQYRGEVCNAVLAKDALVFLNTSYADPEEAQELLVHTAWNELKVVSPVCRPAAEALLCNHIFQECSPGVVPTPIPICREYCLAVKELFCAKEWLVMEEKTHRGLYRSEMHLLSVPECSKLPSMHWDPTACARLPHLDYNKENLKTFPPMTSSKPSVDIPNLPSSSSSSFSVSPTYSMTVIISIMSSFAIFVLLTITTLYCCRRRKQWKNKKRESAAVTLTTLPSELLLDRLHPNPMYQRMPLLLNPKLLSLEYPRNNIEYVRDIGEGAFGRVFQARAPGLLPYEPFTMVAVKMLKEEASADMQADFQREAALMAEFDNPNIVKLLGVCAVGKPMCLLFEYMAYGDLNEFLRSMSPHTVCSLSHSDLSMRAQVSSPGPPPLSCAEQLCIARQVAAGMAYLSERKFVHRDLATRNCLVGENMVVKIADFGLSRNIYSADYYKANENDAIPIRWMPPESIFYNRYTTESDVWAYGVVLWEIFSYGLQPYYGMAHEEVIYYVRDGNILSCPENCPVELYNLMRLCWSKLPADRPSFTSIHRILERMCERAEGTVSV", "procedure": "as §1"}, "NTRK3": {"biological_target": "NTRK3 (Homo sapiens, UniProt Q16288)", "procedure": "as §1"}, "PDGFRA": {"biological_target": "PDGFRA (Homo sapiens, UniProt P16234)", "procedure": "as §1"}, "PTK2": {"biological_target": "PTK2 (Homo sapiens, UniProt Q05397)", "procedure": "as §1"}, "ROS1": {"biological_target": "ROS1 (Homo sapiens, UniProt P08922)", "procedure": "as §1"}, "SYK": {"biological_target": "SYK (Homo sapiens, UniProt P43405)", "procedure": "as §1"}, "TNK2": {"biological_target": "TNK2 (Homo sapiens, UniProt Q07912)", "procedure": "as §1"}, "TYK2": {"biological_target": "TYK2 (Homo sapiens, UniProt P29597)", "procedure": "as §1"}}, "data": [{"smiles": "CCS(=O)(=O)Cc1cnc(Oc2c(F)cc(F)cc2OCCCCOc2ccc(/C=C/c3cc(OC)cc(OC)c3)cc2)c(-c2cc(C)c3c(=O)[nH]ccn23)c1", "note": "[BST-4]", "values": [{"measurement": "IC50", "setting": "ABL2", "value": "> 10", "unit": "µM"}, {"measurement": "inhibition at 1 µM", "setting": "ABL2", "value": 0.44, "unit": "%"}, {"measurement": "IC50", "setting": "EPHA1", "value": "> 10", "unit": "µM"}, {"measurement": "inhibition at 1 µM", "setting": "EPHA1", "value": 0.02, "unit": "%"}, {"measurement": "IC50", "setting": "EPHA2", "value": "> 10", "unit": "µM"}, {"measurement": "inhibition at 1 µM", "setting": "EPHA2", "value": 0.5, "unit": "%"}, {"measurement": "IC50", "setting": "EPHA3", "value": "> 10", "unit": "µM"}, {"measurement": "inhibition at 1 µM", "setting": "EPHA3", "value": 0.89, "unit": "%"}, {"measurement": "IC50", "setting": "EPHA5", "value": "> 10", "unit": "µM"}, {"measurement": "inhibition at 1 µM", "setting": "EPHA5", "value": 3.17, "unit": "%"}, {"measurement": "IC50", "setting": "EPHA6", "value": "> 10", "unit": "µM"}, {"measurement": "inhibition at 1 µM", "setting": "EPHA6", "value": 0.26, "unit": "%"}, {"measurement": "IC50", "setting": "EPHB1", "value": "> 10", "unit": "µM"}, {"measurement": "inhibition at 1 µM", "setting": "EPHB1", "value": 3.35, "unit": "%"}, {"measurement": "IC50", "setting": "EPHB2", "value": "> 10", "unit": "µM"}, {"measurement": "inhibition at 1 µM", "setting": "EPHB2", "value": 0.51, "unit": "%"}, {"measurement": "IC50", "setting": "FES", "value": "> 10", "unit": "µM"}, {"measurement": "inhibition at 1 µM", "setting": "FES", "value": 0.05, "unit": "%"}, {"measurement": "IC50", "setting": "FGFR4", "value": "> 10", "unit": "µM"}, {"measurement": "inhibition at 1 µM", "setting": "FGFR4", "value": 0.68, "unit": "%"}, {"measurement": "IC50", "setting": "FGR", "value": "> 10", "unit": "µM"}, {"measurement": "inhibition at 1 µM", "setting": "FGR", "value": 0.28, "unit": "%"}, {"measurement": "IC50", "setting": "FLT4", "value": "> 10", "unit": "µM"}, {"measurement": "inhibition at 1 µM", "setting": "FLT4", "value": 1.82, "unit": "%"}, {"measurement": "IC50", "setting": "FRK", "value": "> 10", "unit": "µM"}, {"measurement": "inhibition at 1 µM", "setting": "FRK", "value": 0.95, "unit": "%"}, {"measurement": "IC50", "setting": "IGF1R", "value": "> 10", "unit": "µM"}, {"measurement": "inhibition at 1 µM", "setting": "IGF1R", "value": 0.91, "unit": "%"}, {"measurement": "IC50", "setting": "INSR", "value": "> 10", "unit": "µM"}, {"measurement": "inhibition at 1 µM", "setting": "INSR", "value": 2.53, "unit": "%"}, {"measurement": "IC50", "setting": "ITK", "value": "> 10", "unit": "µM"}, {"measurement": "inhibition at 1 µM", "setting": "ITK", "value": 0.75, "unit": "%"}, {"measurement": "IC50", "setting": "KDR", "value": "> 10", "unit": "µM"}, {"measurement": "inhibition at 1 µM", "setting": "KDR", "value": 1.51, "unit": "%"}, {"measurement": "IC50", "setting": "LCK", "value": "> 10", "unit": "µM"}, {"measurement": "inhibition at 1 µM", "setting": "LCK", "value": 0.77, "unit": "%"}, {"measurement": "IC50", "setting": "MET", "value": "> 10", "unit": "µM"}, {"measurement": "inhibition at 1 µM", "setting": "MET", "value": 0.68, "unit": "%"}, {"measurement": "IC50", "setting": "MUSK", "value": "> 10", "unit": "µM"}, {"measurement": "inhibition at 1 µM", "setting": "MUSK", "value": 1.26, "unit": "%"}, {"measurement": "IC50", "setting": "NTRK3", "value": "> 10", "unit": "µM"}, {"measurement": "inhibition at 1 µM", "setting": "NTRK3", "value": 4.75, "unit": "%"}, {"measurement": "IC50", "setting": "PDGFRA", "value": "> 10", "unit": "µM"}, {"measurement": "inhibition at 1 µM", "setting": "PDGFRA", "value": 0.37, "unit": "%"}, {"measurement": "IC50", "setting": "PTK2", "value": "> 10", "unit": "µM"}, {"measurement": "inhibition at 1 µM", "setting": "PTK2", "value": 1.48, "unit": "%"}, {"measurement": "IC50", "setting": "ROS1", "value": "> 10", "unit": "µM"}, {"measurement": "inhibition at 1 µM", "setting": "ROS1", "value": 0.97, "unit": "%"}, {"measurement": "IC50", "setting": "SYK", "value": "> 10", "unit": "µM"}, {"measurement": "inhibition at 1 µM", "setting": "SYK", "value": 1.92, "unit": "%"}, {"measurement": "IC50", "setting": "TNK2", "value": "> 10", "unit": "µM"}, {"measurement": "inhibition at 1 µM", "setting": "TNK2", "value": 0.93, "unit": "%"}, {"measurement": "IC50", "setting": "TYK2", "value": "> 10", "unit": "µM"}, {"measurement": "inhibition at 1 µM", "setting": "TYK2", "value": 5.33, "unit": "%"}]}]}
